We go through six compounds from ChEMBL document CHEMBL5724914, “Linking interpersonal differences in gut microbiota composition and drug biotransformation activity” (2024).

Series [1] in a line: The drug is tested on Z-026 corresponding to metagenome with ENA study accession number: PRJEB37062 and ENA sample accession number: ERS12561825 for biotransformation under anaerobic condition. The drug concentrations were measured over 9 timepoints collected between 0 and 24 hours of incubation by liquid-chromatography-coupled mass spectrometry (LC–MS). The conditions noted are these: 2 µM.

Series [2] is described as follows: The drug is tested on Z-014 corresponding to rat gut metagenome with ENA study accession number: PRJEB37062 and ENA sample accession number: ERS12561814 for biotransformation under anaerobic condition. The drug concentrations were measured over 9 timepoints collected between 0 and 24 hours of incubation by liquid-chromatography-coupled mass spectrometry (LC–MS). The following applies: 2 µM.

A short description of series [3]: The drug is tested on Z-012 corresponding to metagenome with ENA study accession number: PRJEB37062 and ENA sample accession number: ERS12561812 for biotransformation under anaerobic condition. The drug concentrations were measured over 9 timepoints collected between 0 and 24 hours of incubation by liquid-chromatography-coupled mass spectrometry (LC–MS). The following applies: 2 µM.

Series [4] is described as follows: The drug is tested on Z-010 corresponding to metagenome with ENA study accession number: PRJEB37062 and ENA sample accession number: ERS12561810 for biotransformation under anaerobic condition. The drug concentrations were measured over 9 timepoints collected between 0 and 24 hours of incubation by liquid-chromatography-coupled mass spectrometry (LC–MS). The following applies: 2 µM.

Series [5] is described as follows: The drug is tested on Z-008 corresponding to metagenome with ENA study accession number: PRJEB37062 and ENA sample accession number: ERS12561808 for biotransformation under anaerobic condition. The drug concentrations were measured over 9 timepoints collected between 0 and 24 hours of incubation by liquid-chromatography-coupled mass spectrometry (LC–MS). The conditions noted are these: 2 µM.

Series [6] in a line: The drug is tested on Z-006 corresponding to mouse gut metagenome with ENA study accession number: PRJEB37062 and ENA sample accession number: ERS12561806 for biotransformation under anaerobic condition. The drug concentrations were measured over 9 timepoints collected between 0 and 24 hours of incubation by liquid-chromatography-coupled mass spectrometry (LC–MS). The conditions noted are these: 2 µM.

The nature of series [7]: The drug is tested on Z-003 corresponding to pig gut metagenome with ENA study accession number: PRJEB37062 and ENA sample accession number: ERS12561803 for biotransformation under anaerobic condition. The drug concentrations were measured over 9 timepoints collected between 0 and 24 hours of incubation by liquid-chromatography-coupled mass spectrometry (LC–MS). The following applies: 2 µM.

Series [8] is described as follows: The drug is tested on WLS-310 corresponding to human gut metagenome with ENA study accession number: PRJEB37062 and ENA sample accession number: ERS12561785 for biotransformation under anaerobic condition. The drug concentrations were measured over 9 timepoints collected between 0 and 24 hours of incubation by liquid-chromatography-coupled mass spectrometry (LC–MS). The conditions noted are these: 2 µM.

The nature of series [9]: The drug is tested on WLS-098 corresponding to human gut metagenome with ENA study accession number: PRJEB37062 and ENA sample accession number: ERS12561754 for biotransformation under anaerobic condition. The drug concentrations were measured over 9 timepoints collected between 0 and 24 hours of incubation by liquid-chromatography-coupled mass spectrometry (LC–MS). The conditions noted are these: 2 µM.

Series [10] can be described thus: The drug is tested on WLS-077 corresponding to human gut metagenome with ENA study accession number: PRJEB37062 and ENA sample accession number: ERS12561750 for biotransformation under anaerobic condition. The drug concentrations were measured over 9 timepoints collected between 0 and 24 hours of incubation by liquid-chromatography-coupled mass spectrometry (LC–MS). The following applies: 2 µM.

Series [11] in a line: The drug is tested on WLS-010 corresponding to human gut metagenome with ENA study accession number: PRJEB37062 and ENA sample accession number: ERS12561743 for biotransformation under anaerobic condition. The drug concentrations were measured over 9 timepoints collected between 0 and 24 hours of incubation by liquid-chromatography-coupled mass spectrometry (LC–MS). The following applies: 2 µM.

The conditions of series [12]: human gut metagenome, 24 h, 2 µM.
For series [13] the following is noted: human gut metagenome, 24 h, 2 µM. The source holds these as a separate data set.
The conditions of series [14]: human gut metagenome, 24 h, 2 µM. This is another data set of the same source.
For series [15] the following is noted: human gut metagenome, 24 h, 2 µM. The source holds these as a separate data set.
The conditions of series [16]: human gut metagenome, 24 h, 2 µM. This is another data set of the same source.
The conditions of series [17]: human gut metagenome, 24 h, 2 µM. The source holds these as a separate data set.
The conditions of series [18]: human gut metagenome, 24 h, 2 µM. The source holds these as a separate data set.
For series [19] the following is noted: human gut metagenome, 24 h, 2 µM. The source holds these as a separate data set.
For series [20] the following is noted: human gut metagenome, 24 h, 2 µM. This is another data set of the same source.
Further: call rule not given here.

For `OC(Cn1cncn1)(Cn1cncn1)c1ccc(F)cc1F` [FLUCONAZOLE], the “Bacterial Biotransformation” value in series [1], in series [2], in series [3], in series [4], in series [5] and in [6] was “Compound NOT metabolized” throughout. Also, the “Bacterial Biotransformation” value in series [7] is “Compound metabolized”; in series [8] it was “Compound metabolized”; in [9], “Compound metabolized”; in [10], “Compound NOT metabolized”; in [11] it was “Compound NOT metabolized”; in [12], “Compound NOT metabolized”. For the same compound, the “Bacterial Biotransformation” value in [13] is reported as “Compound NOT metabolized”; in series [14], “Compound metabolized”; in series [15], “Compound metabolized”; in [16] it was “Compound NOT metabolized”; in [17] it was “Compound NOT metabolized”; in series [18], “Compound metabolized”. Also, the entries for the “Bacterial Biotransformation” value in [19] and in series [20] were “Compound NOT metabolized” and “Compound metabolized”, respectively.
`CNCCC(Oc1ccc(C(F)(F)F)cc1)c1ccccc1` (stereo not given) [FLUOXETINE]: the “Bacterial Biotransformation” value in series [1], in series [2], in series [3], in [4], in series [5] and in series [6] was “Compound NOT metabolized” each time. For the same compound, the “Bacterial Biotransformation” value in [7], in series [8], in series [9], in series [10], in [11] and in [12] was “Compound NOT metabolized” in each case. In addition, the “Bacterial Biotransformation” value in [13] is listed as “Compound metabolized”; in [14], “Compound metabolized”; in series [15], “Compound NOT metabolized”; in series [16] it was “Compound NOT metabolized”; in series [17], “Compound NOT metabolized”; in series [18] it was “Compound NOT metabolized”. Moreover, the “Bacterial Biotransformation” value in [19] is given as “Compound NOT metabolized”; in [20], “Compound metabolized”.
For `O=C(CCCN1CCC(O)(c2ccc(Cl)cc2)CC1)c1ccc(F)cc1` [HALOPERIDOL], the “Bacterial Biotransformation” value in series [1], in series [2], in [3], in series [4], in [5] and in series [6] was “Compound NOT metabolized” each time. In addition, the “Bacterial Biotransformation” value in series [7] is “Compound metabolized”; in [8], “Compound metabolized”; in [9], “Compound metabolized”; in [10], “Compound NOT metabolized”; in [11], “Compound NOT metabolized”; in series [12] it was “Compound NOT metabolized”. The “Bacterial Biotransformation” value in [13] was “Compound NOT metabolized”; in [14], “Compound NOT metabolized”; in series [15], “Compound metabolized”; in series [16], “Compound NOT metabolized”; in series [17], “Compound NOT metabolized”; in series [18], “Compound NOT metabolized”. Moreover, the “Bacterial Biotransformation” value in series [19] is given as “Compound NOT metabolized”; in [20] it was “Compound metabolized”.
As to `CCCCC1=NC2(CCCC2)C(=O)N1Cc1ccc(-c2ccccc2-c2nnn[nH]2)cc1` [IRBESARTAN], the “Bacterial Biotransformation” value in series [1] is reported as “Compound NOT metabolized”; in series [2] it was “Compound NOT metabolized”; in series [3], “Compound NOT metabolized”; in series [4], “Compound metabolized”; in series [5] it was “Compound NOT metabolized”; in series [6] it was “Compound metabolized”. The “Bacterial Biotransformation” value in [7], in [8], in series [9], in series [10], in [11] and in series [12] was “Compound metabolized” throughout. For the same compound, the “Bacterial Biotransformation” value is reported as “Compound metabolized” in series [13]; “Compound metabolized” in series [14]; “Compound metabolized” in series [15]; “Compound metabolized” in series [16]; “Compound NOT metabolized” in [17]; “Compound metabolized” in series [18]. The “Bacterial Biotransformation” value in series [19] and in [20] was “Compound metabolized” each time.
Take `NC(CO)(CO)CO.O=C(c1ccccc1)c1ccc2n1CCC2C(=O)O` (stereo not given) [KETOROLAC TROMETHAMINE]: the “Bacterial Biotransformation” value in series [1] was “Compound NOT metabolized”; in series [2], “Compound NOT metabolized”; in series [3], “Compound NOT metabolized”; in series [4], “Compound metabolized”; in series [5], “Compound NOT metabolized”; in series [6], “Compound NOT metabolized”. Moreover, the “Bacterial Biotransformation” value in series [7], in [8], in series [9], in series [10], in series [11] and in series [12] was “Compound metabolized” each time. The “Bacterial Biotransformation” value was “Compound metabolized” in series [13]; “Compound metabolized” in [14]; “Compound metabolized” in series [15]; “Compound metabolized” in series [16]; “Compound NOT metabolized” in series [17]; “Compound metabolized” in series [18]. In addition, the “Bacterial Biotransformation” value in series [19] and in series [20] was “Compound metabolized” throughout.
As for `CN1C(=O)CC(C)(c2ccccc2)C1=O` (stereo not given) [METHSUXIMIDE], the “Bacterial Biotransformation” value in [1], in series [2], in series [3], in [4], in series [5] and in [6] was “Compound NOT metabolized” in each case. Besides, the “Bacterial Biotransformation” value in series [7], in series [8], in [9], in [10], in series [11] and in series [12] was “Compound NOT metabolized” in each case. Moreover, the “Bacterial Biotransformation” value in series [13] was “Compound NOT metabolized”; in [14] it was “Compound NOT metabolized”; in series [15], “Compound NOT metabolized”; in series [16] it was “Compound metabolized”; in series [17], “Compound NOT metabolized”; in [18], “Compound metabolized”. In addition, the “Bacterial Biotransformation” value in [19] and in [20] was “Compound NOT metabolized” each time.
